{"source": "paper PMC6704710", "about": "“Preclinical evaluation of 3D185, a novel potent inhibitor of FGFR1/2/3 and CSF-1R, in FGFR-dependent and macrophage-dominant cancer models” (Journal of Experimental & Clinical Cancer Research : CR, 2019)", "test_in_all_cases": "Eurofins kinase panel", "format_in_all_cases": "biochemical", "details_in_all_cases": "read-out: Inhibition rate (%)", "key": {"ALK6(h)": {"target": "T1, ALK6(h) (Homo sapiens, UniProt O00238)", "T1 construct": "purchased Eurofins (KinaseProfiler)", "T1 sequence (O00238 14-502)": "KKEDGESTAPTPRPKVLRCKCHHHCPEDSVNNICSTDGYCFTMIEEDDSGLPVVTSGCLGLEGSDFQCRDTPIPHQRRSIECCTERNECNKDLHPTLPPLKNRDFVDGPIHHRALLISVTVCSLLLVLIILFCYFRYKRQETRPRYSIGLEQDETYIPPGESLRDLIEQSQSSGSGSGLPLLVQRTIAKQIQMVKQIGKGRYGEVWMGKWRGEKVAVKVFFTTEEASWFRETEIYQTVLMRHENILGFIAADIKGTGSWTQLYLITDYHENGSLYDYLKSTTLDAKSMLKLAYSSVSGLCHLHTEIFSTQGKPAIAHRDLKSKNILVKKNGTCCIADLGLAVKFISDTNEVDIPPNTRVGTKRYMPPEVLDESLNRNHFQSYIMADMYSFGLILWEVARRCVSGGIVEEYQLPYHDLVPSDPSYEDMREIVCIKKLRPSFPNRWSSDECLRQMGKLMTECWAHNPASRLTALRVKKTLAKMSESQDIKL"}, "CaMKIIα(h)": {"target": "T2, CaMKIIα(h) (Homo sapiens, UniProt Q9UQM7)", "T2 construct": "purchased Eurofins (KinaseProfiler)"}, "EphA8(h)": {"target": "T3, EphA8(h) (Homo sapiens, UniProt P29322)", "T3 construct": "purchased Eurofins (KinaseProfiler)", "T3 sequence (P29322 28-1005)": "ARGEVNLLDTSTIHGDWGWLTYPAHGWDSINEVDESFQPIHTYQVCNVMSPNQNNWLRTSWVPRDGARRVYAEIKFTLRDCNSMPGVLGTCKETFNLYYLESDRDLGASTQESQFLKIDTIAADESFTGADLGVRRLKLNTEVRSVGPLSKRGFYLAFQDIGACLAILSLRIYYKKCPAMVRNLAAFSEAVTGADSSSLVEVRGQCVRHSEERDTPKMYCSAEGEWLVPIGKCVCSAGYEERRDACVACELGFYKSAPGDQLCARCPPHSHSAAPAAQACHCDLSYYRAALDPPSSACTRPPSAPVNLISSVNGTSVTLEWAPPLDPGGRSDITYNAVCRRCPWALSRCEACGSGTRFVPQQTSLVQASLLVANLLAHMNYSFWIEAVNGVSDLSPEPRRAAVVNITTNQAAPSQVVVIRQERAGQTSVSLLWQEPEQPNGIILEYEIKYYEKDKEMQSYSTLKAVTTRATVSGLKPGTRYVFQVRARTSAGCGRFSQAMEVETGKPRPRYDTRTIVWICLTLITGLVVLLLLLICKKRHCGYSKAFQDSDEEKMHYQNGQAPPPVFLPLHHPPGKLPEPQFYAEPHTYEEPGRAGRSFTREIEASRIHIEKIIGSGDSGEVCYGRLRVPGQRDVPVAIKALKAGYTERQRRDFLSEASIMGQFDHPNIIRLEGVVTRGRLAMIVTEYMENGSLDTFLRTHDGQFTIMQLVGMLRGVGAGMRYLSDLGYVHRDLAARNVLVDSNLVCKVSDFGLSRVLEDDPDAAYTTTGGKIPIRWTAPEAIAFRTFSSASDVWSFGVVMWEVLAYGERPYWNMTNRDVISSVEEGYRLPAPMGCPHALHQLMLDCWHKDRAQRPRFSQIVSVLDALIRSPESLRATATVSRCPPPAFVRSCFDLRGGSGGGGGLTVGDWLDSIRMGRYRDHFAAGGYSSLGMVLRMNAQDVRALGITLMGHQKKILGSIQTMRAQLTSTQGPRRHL"}, "Flt3(h)": {"target": "T4, Flt3(h) (Homo sapiens, UniProt P36888)", "T4 construct": "purchased Eurofins (KinaseProfiler)", "T4 sequence (P36888 27-993)": "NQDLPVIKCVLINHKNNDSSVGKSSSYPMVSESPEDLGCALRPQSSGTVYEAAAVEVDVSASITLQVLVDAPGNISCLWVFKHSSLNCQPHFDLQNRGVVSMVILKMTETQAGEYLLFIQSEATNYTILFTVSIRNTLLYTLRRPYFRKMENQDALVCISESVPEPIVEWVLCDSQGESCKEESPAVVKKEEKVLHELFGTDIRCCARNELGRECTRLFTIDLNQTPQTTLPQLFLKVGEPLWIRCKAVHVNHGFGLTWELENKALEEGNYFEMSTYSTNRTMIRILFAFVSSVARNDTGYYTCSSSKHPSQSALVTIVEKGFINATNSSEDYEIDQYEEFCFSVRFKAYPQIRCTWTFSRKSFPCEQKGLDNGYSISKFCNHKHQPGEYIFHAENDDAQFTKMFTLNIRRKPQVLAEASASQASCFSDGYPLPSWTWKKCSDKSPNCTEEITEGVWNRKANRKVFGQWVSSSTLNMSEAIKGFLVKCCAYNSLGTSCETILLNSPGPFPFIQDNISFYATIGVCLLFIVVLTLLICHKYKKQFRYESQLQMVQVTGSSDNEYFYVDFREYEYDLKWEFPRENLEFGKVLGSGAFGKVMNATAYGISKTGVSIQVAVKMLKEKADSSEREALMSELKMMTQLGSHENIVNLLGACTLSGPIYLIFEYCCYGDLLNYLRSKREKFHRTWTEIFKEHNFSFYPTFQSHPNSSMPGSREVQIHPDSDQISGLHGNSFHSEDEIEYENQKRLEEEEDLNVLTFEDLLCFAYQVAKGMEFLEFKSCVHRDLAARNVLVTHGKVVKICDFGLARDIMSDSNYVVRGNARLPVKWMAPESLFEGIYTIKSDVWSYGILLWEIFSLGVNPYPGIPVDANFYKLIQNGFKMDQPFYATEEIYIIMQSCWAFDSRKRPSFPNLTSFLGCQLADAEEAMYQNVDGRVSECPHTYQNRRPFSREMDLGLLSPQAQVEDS"}, "PAK3(h)": {"target": "T5, PAK3(h) (Homo sapiens, UniProt O75914)", "T5 construct": "purchased Eurofins (KinaseProfiler)"}, "SIK3(h)": {"target": "T6, SIK3(h) (Homo sapiens, UniProt Q9Y2K2)", "T6 construct": "purchased Eurofins (KinaseProfiler)"}, "Src(T341M)(h)": {"target": "T7, Src(T341M)(h) (Homo sapiens, UniProt P12931, T341M)", "T7 construct": "purchased Eurofins (KinaseProfiler)", "T7 sequence (P12931 whole entry T341M)": "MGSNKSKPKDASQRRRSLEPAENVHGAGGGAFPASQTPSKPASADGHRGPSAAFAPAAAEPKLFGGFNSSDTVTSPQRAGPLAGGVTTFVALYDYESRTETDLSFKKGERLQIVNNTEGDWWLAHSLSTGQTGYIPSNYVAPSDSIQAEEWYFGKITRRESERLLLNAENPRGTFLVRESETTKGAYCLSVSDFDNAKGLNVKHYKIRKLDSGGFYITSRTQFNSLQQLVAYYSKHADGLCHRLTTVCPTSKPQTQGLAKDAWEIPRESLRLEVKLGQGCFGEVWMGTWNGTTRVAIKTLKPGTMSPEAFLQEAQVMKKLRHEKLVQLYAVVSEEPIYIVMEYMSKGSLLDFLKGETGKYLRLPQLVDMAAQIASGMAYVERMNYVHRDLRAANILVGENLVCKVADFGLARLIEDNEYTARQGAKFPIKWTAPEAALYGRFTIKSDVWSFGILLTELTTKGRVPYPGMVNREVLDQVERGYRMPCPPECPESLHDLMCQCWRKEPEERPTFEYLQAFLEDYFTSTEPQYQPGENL"}}}
{"smiles": "COc1cc(OC)c(Cl)c(-c2ccc3c(NC(=O)c4ccc(N5CCNC(C)(C)C5)cc4)n[nH]c3n2)c1Cl", "note": "[3D185]", "values": [{"measurement": "inhibition at 0.01 µM", "setting": "ALK6(h); 10 nM", "value": 3, "unit": "%"}, {"measurement": "inhibition at 0.1 µM", "setting": "ALK6(h); 100 nM", "value": -11, "unit": "%"}, {"measurement": "inhibition at 1 µM", "setting": "ALK6(h); 1000 nM", "value": -5, "unit": "%"}, {"measurement": "inhibition at 0.01 µM", "setting": "CaMKIIα(h); 10 nM", "value": -9, "unit": "%"}, {"measurement": "inhibition at 0.1 µM", "setting": "CaMKIIα(h); 100 nM", "value": 2, "unit": "%"}, {"measurement": "inhibition at 1 µM", "setting": "CaMKIIα(h); 1000 nM", "value": -15, "unit": "%"}, {"measurement": "inhibition at 0.01 µM", "setting": "EphA8(h); 10 nM", "value": 1, "unit": "%"}, {"measurement": "inhibition at 0.1 µM", "setting": "EphA8(h); 100 nM", "value": 5, "unit": "%"}, {"measurement": "inhibition at 1 µM", "setting": "EphA8(h); 1000 nM", "value": 29, "unit": "%"}, {"measurement": "inhibition at 0.01 µM", "setting": "Flt3(h); 10 nM", "value": 10, "unit": "%"}, {"measurement": "inhibition at 0.1 µM", "setting": "Flt3(h); 100 nM", "value": 17, "unit": "%"}, {"measurement": "inhibition at 1 µM", "setting": "Flt3(h); 1000 nM", "value": 27, "unit": "%"}, {"measurement": "inhibition at 0.01 µM", "setting": "PAK3(h); 10 nM", "value": -1, "unit": "%"}, {"measurement": "inhibition at 0.1 µM", "setting": "PAK3(h); 100 nM", "value": -3, "unit": "%"}, {"measurement": "inhibition at 1 µM", "setting": "PAK3(h); 1000 nM", "value": 7, "unit": "%"}, {"measurement": "inhibition at 0.01 µM", "setting": "SIK3(h); 10 nM", "value": -4, "unit": "%"}, {"measurement": "inhibition at 0.1 µM", "setting": "SIK3(h); 100 nM", "value": -1, "unit": "%"}, {"measurement": "inhibition at 1 µM", "setting": "SIK3(h); 1000 nM", "value": -2, "unit": "%"}, {"measurement": "inhibition at 0.01 µM", "setting": "Src(T341M)(h); 10 nM", "value": 8, "unit": "%"}, {"measurement": "inhibition at 0.1 µM", "setting": "Src(T341M)(h); 100 nM", "value": 33, "unit": "%"}, {"measurement": "inhibition at 1 µM", "setting": "Src(T341M)(h); 1000 nM", "value": 88, "unit": "%"}]}
